According to article PMC9319179, “Heterologous Expression and Characterization of Plant Wax Ester Producing Enzymes” (Metabolites, 2022):

How the values were obtained:
Arabidopsis At5g55340 WS = target: T1, Arabidopsis At5g55340 WS (Arabidopsis thaliana, UniProt Q9FJ76); test: in vivo feeding of expressing yeast, wax esters by TLC and GC-MS; assay type: cell-based; conditions: S. cerevisiae H1246; 50 uM alcohol with fed fatty acid (13:0 preferred), 20 °C; acyl donor formed in vivo
T1 construct: gene AT5
T1 sequence (Q9FJ76 1-333): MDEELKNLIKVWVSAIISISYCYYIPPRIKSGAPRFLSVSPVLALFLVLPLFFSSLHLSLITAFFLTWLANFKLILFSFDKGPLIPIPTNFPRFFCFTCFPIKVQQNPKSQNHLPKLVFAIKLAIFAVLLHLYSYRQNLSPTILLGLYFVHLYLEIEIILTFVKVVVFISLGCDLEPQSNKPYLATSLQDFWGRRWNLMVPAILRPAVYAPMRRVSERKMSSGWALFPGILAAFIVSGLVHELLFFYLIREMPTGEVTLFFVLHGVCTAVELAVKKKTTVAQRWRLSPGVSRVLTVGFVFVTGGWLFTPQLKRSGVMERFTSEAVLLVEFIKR

[1] = target: T2, maize WS (NP_001147171.1) (Zea mays, UniProt B6SLT2); test: in vivo feeding of expressing yeast, ethyl/benzyl esters by GC-MS; assay type: cell-based; conditions: S. cerevisiae H1246; fed fatty acids (14:1 preferred acyl), 20 °C; acyl donor formed in vivo
T2 construct: full-length ORF, C-terminal His6 tag, yeast codon-optimized synthetic ORF, expressed in S. cerevisiae H1246
T2 sequence (B6SLT2 1-345): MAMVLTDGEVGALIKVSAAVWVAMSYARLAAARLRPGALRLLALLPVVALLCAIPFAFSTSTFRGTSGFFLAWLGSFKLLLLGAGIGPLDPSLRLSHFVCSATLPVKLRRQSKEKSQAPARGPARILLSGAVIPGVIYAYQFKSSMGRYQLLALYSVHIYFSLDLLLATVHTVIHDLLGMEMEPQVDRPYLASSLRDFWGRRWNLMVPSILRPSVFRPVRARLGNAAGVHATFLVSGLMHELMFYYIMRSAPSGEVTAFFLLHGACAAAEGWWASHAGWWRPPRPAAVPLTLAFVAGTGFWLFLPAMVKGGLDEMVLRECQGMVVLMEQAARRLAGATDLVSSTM

Structure (SMILES)	in vivo feeding of expressing yeast, wax esters by TLC and GC-MS (Arabidopsis At5g55340 WS)	in vivo feeding of expressing yeast, ethyl/benzyl esters by GC-MS [1]
CCCCCCCCCCCCCO [C13:0, C13:0 fatty alcohol]	apparent optimum at 13-carbon chain length for both the fatty acid and fatty alcohol	
OCc1ccccc1 [benzyl alcohol]		ability to assemble esters with ethanol, benzyl alcohol, and phenylethyl alcohol
CCO [ethanol]		ability to assemble esters with ethanol, benzyl alcohol, and phenylethyl alcohol
